Data from US20230183188A1, “ENPP1 MODULATORS AND USES THEREOF” (Vir Biotechnology, Inc., priority 2020, published 2023).

Molecular target: T1, recombinant protein containing the human ENPP1 enzymatic domain (Homo sapiens, UniProt P22413)
T1 construct: recombinant protein containing the human ENPP1 enzymatic domain; purchased R&D Systems 6136-EN-010
T1 sequence (P22413 191-591 limits assumed): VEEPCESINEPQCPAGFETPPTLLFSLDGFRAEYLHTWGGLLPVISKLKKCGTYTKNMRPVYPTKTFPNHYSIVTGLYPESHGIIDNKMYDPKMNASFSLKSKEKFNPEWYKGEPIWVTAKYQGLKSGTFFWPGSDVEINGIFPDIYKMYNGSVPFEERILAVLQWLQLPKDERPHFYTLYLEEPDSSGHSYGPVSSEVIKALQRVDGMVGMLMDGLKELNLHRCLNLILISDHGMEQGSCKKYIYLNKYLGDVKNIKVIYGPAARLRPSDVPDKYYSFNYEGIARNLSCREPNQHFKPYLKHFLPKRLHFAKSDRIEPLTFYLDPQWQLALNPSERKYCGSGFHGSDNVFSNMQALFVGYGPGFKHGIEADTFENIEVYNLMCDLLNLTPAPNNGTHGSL
Assay: ENPP1 Enzymatic Inhibition Assay (2′3′-cGAMP substrate, AMP-Glo luminescence)
Type: biochemical
Conditions: 1 nM ENPP1, 20 uM 2′3′-cGAMP substrate, 30 minutes at 37° C.
Procedure: The inhibition of ENPP1's phosphodiesterase activity were tested in a purified enzymatic assay using 2′3′-cyclic GAMP as a substrate which allowed for the release of cleaved AMP to be monitored using a luminescent assay.
Putative inhibitors were diluted in assay buffer (50 mM Tris pH 8.0, 250 mM NaCl, 0.5 mM CaCl2, 1 uM ZnCl2, 1% DMSO) and pre-incubated for 15 minutes at 37° C. with recombinant protein containing the human ENPP1 enzymatic domain (R&D Systems cat. #6136-EN-010). The enzymatic reaction was initiated upon addition of the 2′3′-cGAMP substrate. The final reaction concentrations were 1 nM ENPP1 and 20 uM 2′3′-cGAMP substrate in a 25 uL volume. Inhibitor concentrations ranged from 10 uM to 0.2 nM. The reaction was incubated for 30 minutes at 37° C.
After reacting for 30 minutes, the amount of AMP generated from the cleavage of 2′3′-cGAMP was determined using the Promega AMP-Glo method according to the manufacturer's protocol. First, AMP-Glo reagent 1 was added and incubated with the reaction mix for 1 hour at room temperature. Second, AMP Detection solution was added and the mixture was incubated for an additional hour. The luminescence of the mixture was read on a Perkin Elmer Ensight plate reader.
The maximum and minimum levels of ENPP1 activity were established using no inhibitor and no enzyme controls, respectively. The activity observed using ENPP1 inhibitors was quantified as the percent of activity relative to these controls. IC50 values were calculated using GraphPad Prism by fitting a sigmoidal variable slope nonlinear regression model to the data.

| SMILES | IC50 [nM] |
| --- | --- |
| COc1ccc2c(Oc3ccc(S(=N)(=O)N(C)C)cc3)ccnc2c1 (stereo not drawn) [Compound 32, 4-((7-methoxyquinolin-4-yl)oxy)-N, N-dimethylbenzenesulfonimidamide] | > 100 |
| CCN=S(N)(=O)c1ccc(Oc2ccnc3cc(OC)ccc23)cc1 (stereo not drawn) [Compound 22, N′-ethyl-4-((7-methoxyquinolin-4-yl)oxy)benzenesulfonimidamide] | 10 to 100 |
| COc1ccc2c(Oc3ccc(S(N)(=O)=NCCc4ccccc4)cc3)ccnc2c1 (stereo not drawn) [Compound 19, 4-((7-methoxyquinolin-4-yl)oxy)-N′-phenethylbenzenesulfonimidamide] | 10 to 100 |
| CCS(=N)(=O)c1ccc(Oc2ccnc3cc(OC)ccc23)cc1 (stereo not drawn) [Compound 4, ethyl(imino)(4-((7-methoxyquinolin-4-yl)oxy)phenyl)-λ^6-sulfanone] | < 10 |
| COc1ccc2c(Oc3ccc(S(N)(=O)=NCc4ncco4)cc3)ccnc2c1 (stereo not drawn) [Compound 15, 4-((7-methoxyquinolin-4-yl)oxy)-N′-(oxazol-2-ylmethyl)benzenesulfonimidamide] | < 10 |
| COc1ccc2c(Oc3ccc(S(N)(=O)=NCCN)cc3)ccnc2c1 (stereo not drawn) [Compound 40, N′-(2-aminoethyl)-4-((7-methoxyquinolin-4-yl)oxy)benzenesulfonimidamide] | 10 to 100 |
| COc1ccc2c(Oc3ccc(S(N)(=O)=NC[C@H]4CCCN4C(=O)OC(C)(C)C)cc3)ccnc2c1 (stereo partly drawn) [Compound 5, tert-butyl (2R)-2-(((amino(4-((7-methoxyquinolin-4-yl)oxy)phenyl)(oxo)-I^6-sulfaneylidene)amino)methyl) pyrrolidine-1-carboxylate] | 10 to 100 |
| COc1ccc2c(Oc3ccc(S(N)(=O)=NCC(C)O)cc3)ccnc2c1 (single isomer, unassigned) [Compound 10, N′-(2-hydroxypropyl)-4-((7-methoxyquinolin-4-yl)oxy)benzenesulfonimidamide] | < 10 |
| COc1ccc2c(Oc3ccc(S(N)(=O)=NCCOc4ccccc4)cc3)ccnc2c1 (stereo not drawn) [Compound 34, 4-((7-methoxyquinolin-4-yl)oxy)-N′-(2-phenoxyethyl)benzenesulfonimidamide] | 10 to 100 |
| COc1ccc2c(Oc3ccc(S(=N)(=O)N4CCCC4)cc3)ccnc2c1 (stereo not drawn) [Compound 24, 7-methoxy-4-(4-(pyrrolidine-1-sulfonimidoyl)phenoxy)quinoline] | > 100 |
| COc1ccc2c(Oc3ccc(S(N)(=O)=Nc4ccccc4)cc3)ccnc2c1 (stereo not drawn) [Compound 20, 4-((7-methoxyquinolin-4-yl)oxy)-N′-phenylbenzenesulfonimidamide] | 10 to 100 |
| COc1ccc2c(Oc3ccc(S(N)(=O)=NCC4CCC4)cc3)ccnc2c1 (stereo not drawn) [Compound 36, N′-(cyclobutylmethyl)-4-((7-methoxyquinolin-4-yl)oxy)benzenesulfonimidamide] | < 10 |
| COc1ccc2c(Oc3ccc(S(N)(=O)=NCC(F)(F)F)cc3)ccnc2c1 (stereo not drawn) [Compound 37, 4-((7-methoxyquinolin-4-yl)oxy)-N′-(2,2,2-trifluoroethyl)benzenesulfonimidamide] | < 10 |
| COc1ccc2c(Oc3ccc(S(N)(=O)=NC[C@@H]4CCCN4C(=O)OC(C)(C)C)cc3)ccnc2c1 (stereo partly drawn) [Compound 43, tert-butyl (2S)-2-(((amino(4-((7-methoxyquinolin-4-yl)oxy)phenyl)(oxo)-I^6-sulfaneylidene)amino)methyl) pyrrolidine-1-carboxylate] | 10 to 100 |
| COc1ccc2c(Oc3ccc(S(N)(=O)=NCc4ccc(-c5ccncc5)cc4)cc3)ccnc2c1 (stereo not drawn) [Compound 35, 4-((7-methoxyquinolin-4-yl)oxy)-N′-(4-(pyridin-4-yl)benzyl)benzenesulfonimidamide] | < 10 |
| COc1ccc2c(Oc3ccc(S(N)(=O)=NCCNC(C)=O)cc3)ccnc2c1 (stereo not drawn) [Compound 41, N-(2-((amino(4-((7-methoxyquinolin-4-yl)oxy)phenyl)(oxo)-I^6-sulfaneylidene)amino)ethyl)acetamide] | < 10 |
| COc1ccc2c(Oc3ccc(S(N)(=O)=NCc4ccccn4)cc3)ccnc2c1 (stereo not drawn) [Compound 26, 4-((7-methoxyquinolin-4-yl)oxy)-N′-(pyridin-2-ylmethyl)benzenesulfonimidamide] | 10 to 100 |
| COc1ccc2c(Oc3ccc(S(N)(=O)=NCCNC(=O)OC(C)(C)C)cc3)ccnc2c1 (stereo not drawn) [Compound 39, tert-butyl (2-((amino(4-((7-methoxyquinolin-4-yl)oxy)phenyl)(oxo)-λ^6-sulfaneylidene)amino)ethyl) carbamate] | 10 to 100 |

| SMILES | IC50 [nM] |
| --- | --- |
| COc1ccc2c(Oc3ccc(S(N)(=O)=NC4(c5ccccn5)CC4)cc3)ccnc2c1 (stereo not drawn) [Compound 33, 4-((7-methoxyquinolin-4-yl)oxy)-N′-(1-(pyridin-2-yl)cyclopropyl)benzenesulfonimidamide] | < 10 |
| COc1ccc2c(Oc3ccc(S(=N)(N)=O)cc3)ccnc2c1 (stereo not drawn) [Compound 30, 4-((7-methoxyquinolin-4-yl)oxy)benzenesulfonimidamide] | 10 to 100 |
| CNS(=N)(=O)c1ccc(Oc2ccnc3cc(OC)ccc23)cc1 (stereo not drawn) [Compound 31, 4-((7-methoxyquinolin-4-yl)oxy)-N′-methylbenzenesulfonimidamide] | 10 to 100 |
| CCN(CC)S(=N)(=O)c1ccc(Oc2ccnc3cc(OC)ccc23)cc1 (stereo not drawn) [Compound 23, N,N-diethyl-4-((7-methoxyquinolin-4-yl)oxy)benzenesulfonimidamide] | > 100 |
| COc1ccc2c(Oc3ccc(S(N)(=O)=NC[C@H]4CCCN4)cc3)ccnc2c1 (stereo partly drawn) [Compound 6, 4-((7-methoxyquinolin-4-yl)oxy)-N′-(((R)-pyrrolidin-2-yl)methyl)benzenesulfonimidamide] | 10 to 100 |
| COc1ccc2c(Oc3ccc(S(N)(=O)=NCC(C)(C)O)cc3)ccnc2c1 (stereo not drawn) [Compound 11, N′-(2-hydroxy-2-methylpropyl)-4-((7-methoxyquinolin-4-yl)oxy)benzenesulfonimidamide] | < 10 |
| COc1ccc2c(Oc3ccc(S(N)(=O)=Nc4ccc(-c5ccncc5)cc4)cc3)ccnc2c1 (stereo not drawn) [Compound 38, 4-((7-methoxyquinolin-4-yl)oxy)-N′-(4-(pyridin-4-yl)phenyl)benzenesulfonimidamide] | 10 to 100 |
| COc1ccc2c(Oc3ccc(S(N)(=O)=NCc4ccccc4)cc3)ccnc2c1 (stereo not drawn) [Compound 25, N′-benzyl-4-((7-methoxyquinolin-4-yl)oxy)benzenesulfonimidamide] | < 10 |
| COc1ccc2c(Oc3ccc(S(N)(=O)=NCc4nccs4)cc3)ccnc2c1 (stereo not drawn) [Compound 17, 4-((7-methoxyquinolin-4-yl)oxy)-N′-(thiazol-2-ylmethyl)benzenesulfonimidamide] | < 10 |
| COc1ccc2c(Oc3ccc(S(N)(=O)=NCCO)cc3)ccnc2c1 (stereo not drawn) [Compound 9, N-(2-hydroxyethyl)-4-((7-methoxyquinolin-4-yl)oxy)benzenesulfonimidamide] | 10 to 100 |
| COc1ccc2c(Oc3ccc(S4(=O)=NC(=O)CN4)cc3)ccnc2c1 (stereo not drawn) [Compound 8, 1-(4-((7-methoxyquinolin-4-yl)oxy)phenyl)-4,5-dihydro-3H-1λ^6,2,5-thiadiazol-3-one 1-oxide] | > 100 |
| COc1ccc2c(Oc3ccc(S(=N)(=O)N4CCN(C)CC4)cc3)ccnc2c1 (stereo not drawn) [Compound 29, 7-methoxy-4-(4-(4-methylpiperazine-1-sulfonimidoyl)phenoxy)quinoline] | 10 to 100 |
| CN=S(N)(=O)c1ccc(CNc2ccnc3cc(OC)ccc23)cc1 (stereo not drawn) [Compound 3, 4-(((7-methoxyquinolin-4-yl)amino)methyl)-N-methylbenzenesulfonimidamide] | > 100 |
| COc1ccc2c(Oc3ccc(S(=N)(=O)NC[C@@H](O)CO)cc3)ccnc2c1 (single isomer, unassigned) [Compound 45] | < 10 |
| COc1ccc2c(Oc3ccc(S(N)(=O)=NCCOc4cccnc4)cc3)ccnc2c1 (stereo not drawn) [Compound 13, 4-((7-methoxyquinolin-4-yl)oxy)-N′-(2-(pyridin-3-yloxy)ethyl)benzenesulfonimidamide] | < 10 |
| COc1ccc2c(Oc3ccc(S(N)(=O)=NCc4cccnc4)cc3)ccnc2c1 (stereo not drawn) [Compound 27, 4-((7-methoxyquinolin-4-yl)oxy)-N′-(pyridin-3-ylmethyl)benzenesulfonimidamide] | 10 to 100 |
| COc1ccc2c(Oc3ccc(S(N)(=O)=NCC(=O)O)cc3)ccnc2c1 (stereo not drawn) [Compound 7] | 10 to 100 |
| COc1ccc2c(Oc3ccc(S(N)(=O)=NC4CC4)cc3)ccnc2c1 (stereo not drawn) [Compound 21, N′-cyclopropyl-4-((7-methoxyquinolin-4-yl)oxy)benzenesulfonimidamide] | 10 to 100 |
